From ChEMBL document CHEMBL4831516, “Development of Membrane-Active Honokiol/Magnolol Amphiphiles as Potent Antibacterial Agents against Methicillin-Resistant Staphylococcus aureus (MRSA)” (J Med Chem, 2021)
Active and inactive are the calls of the source. No cut-off for these calls is given here.

Legend:
Staphylococcus aureus [1] = assay: Antibacterial activity against methicillin-resistant Staphylococcus aureus clinical isolate 16 infected in BALB/c mouse assessed as reduction in inflammatory cell inflammation in spleen at 25 mg/kg, sc once a day for 3 days by H and E staining based assay; format: functional, organism-based; details: time 3.0 day
Cell membrane [2] = assay: Induction of membrane disruption in methicillin-resistant Staphylococcus aureus clinical isolate 16 assessed as increase in green fluorescence at 10 ug/ml by SYTOX green staining based confocal laser scanning microscopy; format: subcellular; details: dose 10.0 µg/ml
Staphylococcus aureus [3] = assay: Bactericidal activity against methicillin-resistant Staphylococcus aureus clinical isolate 16 assessed as reduction in colony formation at 1 times of MIC measured upto 8 hrs by time-kill assay; format: functional, organism-based; details: time hrs <=8
Cell membrane [4] = assay: Induction of membrane disruption in methicillin-resistant Staphylococcus aureus clinical isolate 16 at 4 to 32 ug/ml measured for 16 mins by DiSC35 dye based fluorescence assay; format: subcellular; details: dose 4-32 µg/ml
Staphylococcus aureus [5] = assay: Antibacterial activity against methicillin-resistant Staphylococcus aureus clinical isolate 16 infected in BALB/c mouse assessed as reduction in inflammatory cell inflammation in kidney at 25 mg/kg, sc once a day for 3 days by H and E staining based assay; format: functional, organism-based; details: time 3.0 day
Staphylococcus aureus [6] = assay: Antibacterial activity against methicillin-resistant Staphylococcus aureus clinical isolate M-18 assessed as inhibition of visible growth incubated for 16 to 18 hrs by CLSI method; format: functional; details: time 16-18 hrs, read-out: MIC100
Cell membrane [7] = assay: Induction of membrane morphological changes in methicillin-resistant Staphylococcus aureus clinical isolate 16 assessed as intact and smooth surface at 10 ug/ml by scanning electron microscopy; format: subcellular; details: dose 10.0 µg/ml
Staphylococcus aureus [8] = assay: Antibiofilm activity against Staphylococcus aureus assessed as destruction of biofilm at 64 ug/ml incubated for 16 to 18 hrs by crystal violet based biofilm disruption assay relative to control; format: functional; details: dose 64 µg/ml; time 16-18 hrs
Staphylococcus aureus [9] = assay: Antibacterial activity against […] at sublethal concentration treated over 20 serial passages by resistance development assay; format: functional, organism-based
L02 = assay: Cytotoxicity against human LO2 cells assessed as cell morphology at 128 ug/ml incubated for 24 hrs by live/dead staining based fluorescence microscopy; details: l02, 24 h, dose 128 µg/ml
Salmonella enterica = assay: Antibacterial activity against Salmonella enterica 8389 assessed as inhibition of visible growth incubated for 16 to 18 hrs by CLSI method; format: functional; details: time 16-18 hrs, read-out: MIC100

C=CCc1ccc(OCCC[N+](C)(C)CC(=O)NCCCC)c(-c2ccc(OCCC[N+](C)(C)CC(=O)NCCCC)c(CC=C)c2)c1.[Br-].[Br-]
Activity (Staphylococcus aureus [1]): Active
Activity (Cell membrane [2]): Active
Activity (Staphylococcus aureus [3]): Active
Activity (Cell membrane [4]): Active
Activity (Staphylococcus aureus [5]): Active
MIC (Staphylococcus aureus [6]): 0.5 µg/mL
Activity (Cell membrane [7]): Active
Activity (Staphylococcus aureus [8]): 20%
Activity (Staphylococcus aureus [9]): Active
Activity (L02): Non-Toxic
MIC (Salmonella enterica): 4 µg/mL
